Literature values as cited in patent US20110152177A1, “Functional Feed Composition” (priority 2008, published 2011).

Legend:
[1] = test system: V. anguillarum; conditions: oral administration of PG at 0.2 and 2 mg/kg diet
[2] = test system: Vibrio anguillarium; conditions: lower and higher doses reported to increase mortalities

Question: Which “disease resistance” value [1] does the source give for peptidoglycan here?
Answer: Its value is “enhances the disease resistance”.

Question: What about the “optimal dose of peptidoglycan in diet” value [2] of the same substance?
Answer: The value was 4 g kg^−1 diet.
